What was measured:
[1] = test system: mammalian vacuolar-type (H+)-ATPase (from chromaffin granule membranes); assay: mammalian vacuolar-type (H+)-ATPase inhibition, side-by-side test; format: biochemical; conditions: chromaffin granule membranes; side-by-side test
Source text: (§1) The inhibitory data were obtained using the same procedures and biological preparations described in Bowman et al., Proc. Natl. Acad. Sci. USA, 85, 7972-7976 (November 1988).

[2] = test system: fungal vacuolar-type (H+)-ATPase (from Neurospora crassa); assay: fungal vacuolar-type (H+)-ATPase inhibition, side-by-side test; format: biochemical
Source text: as §1

C/C=C/[C@H]1O[C@@](O)([C@@H](C)[C@H](O)[C@H](C)[C@H]2OC(=O)/C(OC)=C/C(C)=C/[C@@H](C)[C@@H](O)[C@@H](CC)[C@@H](O)[C@H](C)C/C(C)=C/C=C/[C@@H]2OC)C[C@@H](O[C@H]2C[C@@H](O)[C@H](OC(N)=O)[C@@H](C)O2)[C@@H]1C [concanamycin A, reference compound]
inhibitory activity against mammalian vacuolar-type (H+)-ATPase [1]: potent inhibitor
inhibitory activity against fungal vacuolar-type (H+)-ATPase [2]: potent inhibitor
